# Data taken from PubChem BioAssay (NCI).
#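 Growth conditions: 96-well plates. Treatment: test compound, 48 hours, 5 concentrations. Analysis: linear interpolation between bracketing concentrations; unreached endpoints set to highest concentration. GI50 = concentration required for 50% inhibition of growth. The concentration for full growth arrest is given as TGI.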
# Key:
# Experiment in all cases: NCI-60 cell line screen, 48 h
# [1] = system: COLO 205 colon
# [2] = system: SK-OV-3 ovarian
# [3] = system: A549 NSCLC
# [4] = system: NCI/ADR-RES ovarian
# [5] = system: SK-MEL-28 melanoma
# [6] = system: PC-3 prostate
# [7] = system: NCI-H226 lung
# [8] = system: TK-10 renal
# [9] = system: M14 melanoma
# [10] = system: UACC-62 melanoma
# [11] = system: MDA-MB-435
# [12] = system: UACC-257 melanoma
# [13] = system: HL-60(TB) leukemia
# [14] = system: K-562 leukemia
# [15] = system: RXF 393 renal
# [16] = system: HOP-92 NSCLC
# [17] = system: NCI-H23 lung
# [18] = system: A498 renal
# [19] = system: RPMI-8226 leukemia
# [20] = system: SW-620 colon
# [21] = system: OVCAR-4 ovarian
# [22] = system: SF-268 CNS
# [23] = system: SF-539 CNS
# [24] = system: SF-295 CNS
# [25] = system: MOLT-4 leukemia
# [26] = system: SNB-19 CNS
# [27] = system: LOX IMVI melanoma
# [28] = system: EKVX NSCLC
# [29] = system: OVCAR-8 ovarian
# [30] = system: ACHN renal
# [31] = system: MDA-MB-231 breast
# [32] = system: U251 CNS
# [33] = system: SN12C renal
# [34] = system: SK-MEL-2 melanoma
# [35] = system: NCI-H460 lung
# [36] = system: KM12 colon
# [37] = system: IGROV1 ovarian
# [38] = system: SR leukemia
# [39] = system: HCT-15 colon
# [40] = system: OVCAR-5 ovarian
# [41] = system: MALME-3M melanoma
# [42] = system: UO-31 renal
# [43] = system: BT-549 breast
# [44] = system: HCT-116 colon
# [45] = system: MCF7 breast
# [46] = system: SK-MEL-5 melanoma
# [47] = system: NCI-H522 lung
# [48] = system: CCRF-CEM leukemia
# [49] = system: HT29 colon
# [50] = system: OVCAR-3 ovarian
# [51] = system: HOP-62 NSCLC
# [52] = system: 786-0 renal
# [53] = system: HCC-2998 colon
# [54] = system: SNB-75 CNS
# [55] = system: HS 578T breast
# [56] = system: T-47D breast
smiles,measurement,setting,value
CCC(C)[C@H]1C(=O)O[C@H](C(C)C)C(=O)N(C)[C@@H](C(C)C)C(=O)O[C@H](C(C)C)C(=O)N(C)[C@@H](C(C)C)C(=O)O[C@H](C(C)C)C(=O)N1C (some centres not stated),GI50,[1],1230 nM
same,TGI,[1],2940 nM
same,GI50,[2],2470 nM
same,TGI,[2],7590 nM
same,GI50,[3],3000 nM
same,TGI,[3],> 10000 nM
same,GI50,[4],2120 nM
same,TGI,[4],> 10000 nM
same,GI50,[5],2720 nM
same,TGI,[5],> 10000 nM
same,GI50,[6],1560 nM
same,TGI,[6],> 10000 nM
same,GI50,[7],3620 nM
same,TGI,[7],> 10000 nM
same,GI50,[8],2580 nM
same,TGI,[8],> 10000 nM
same,GI50,[9],1660 nM
same,TGI,[9],> 10000 nM
same,GI50,[10],631 nM
same,TGI,[10],> 10000 nM
same,GI50,[11],2460 nM
same,TGI,[11],> 10000 nM
same,GI50,[12],2080 nM
same,TGI,[12],> 10000 nM
same,GI50,[13],2460 nM
same,TGI,[13],5260 nM
same,GI50,[14],1460 nM
same,TGI,[14],> 10000 nM
same,GI50,[15],2730 nM
same,TGI,[15],> 10000 nM
same,GI50,[16],1210 nM
same,TGI,[16],6010 nM
same,GI50,[17],1680 nM
same,TGI,[17],> 10000 nM
same,GI50,[18],2610 nM
same,TGI,[18],9710 nM
same,GI50,[19],457 nM
same,TGI,[19],4930 nM
same,GI50,[20],3100 nM
same,TGI,[20],> 10000 nM
same,GI50,[21],2010 nM
same,TGI,[21],> 10000 nM
same,GI50,[22],3850 nM
same,TGI,[22],> 10000 nM
same,GI50,[23],3650 nM
same,TGI,[23],> 10000 nM
same,GI50,[24],717 nM
same,TGI,[24],> 10000 nM
same,GI50,[25],3610 nM
same,TGI,[25],9970 nM
same,GI50,[26],2070 nM
same,TGI,[26],> 10000 nM
same,GI50,[27],1940 nM
same,TGI,[27],> 10000 nM
same,GI50,[28],2100 nM
same,TGI,[28],> 10000 nM
same,GI50,[29],2110 nM
same,TGI,[29],> 10000 nM
same,GI50,[30],788 nM
same,TGI,[30],> 10000 nM
same,GI50,[31],2560 nM
same,TGI,[31],8150 nM
same,GI50,[32],2190 nM
same,TGI,[32],> 10000 nM
same,GI50,[33],1720 nM
same,TGI,[33],> 10000 nM
same,GI50,[34],3810 nM
same,TGI,[34],> 10000 nM
same,GI50,[35],1650 nM
same,TGI,[35],> 10000 nM
same,GI50,[36],1570 nM
same,TGI,[36],> 10000 nM
same,GI50,[37],3510 nM
same,TGI,[37],> 10000 nM
same,GI50,[38],3670 nM
same,TGI,[38],> 10000 nM
same,GI50,[39],2700 nM
same,TGI,[39],> 10000 nM
same,GI50,[40],3210 nM
same,TGI,[40],> 10000 nM
same,GI50,[41],577 nM
same,TGI,[41],> 10000 nM
same,GI50,[42],1030 nM
same,TGI,[42],> 10000 nM
same,GI50,[43],2500 nM
same,TGI,[43],> 10000 nM
same,GI50,[44],2080 nM
same,TGI,[44],> 10000 nM
same,GI50,[45],1260 nM
same,TGI,[45],> 10000 nM
same,GI50,[46],761 nM
same,TGI,[46],2920 nM
same,GI50,[47],1610 nM
same,TGI,[47],> 10000 nM
same,GI50,[48],3000 nM
same,TGI,[48],> 10000 nM
same,GI50,[49],2570 nM
same,TGI,[49],> 10000 nM
same,GI50,[50],704 nM
same,TGI,[50],> 10000 nM
same,GI50,[51],3520 nM
same,TGI,[51],> 10000 nM
same,GI50,[52],3090 nM
same,TGI,[52],> 10000 nM
same,GI50,[53],2670 nM
same,TGI,[53],> 10000 nM
same,GI50,[54],2750 nM
same,TGI,[54],> 10000 nM
same,GI50,[55],4640 nM
same,TGI,[55],> 10000 nM
same,GI50,[56],1080 nM
same,TGI,[56],7810 nM
